Test results: patent US5132424A, “Pyrazolo-pyrrolo-pyrimidine-diones” (The Upjohn Company, priority 1991, dated 1992)

Legend:
[1] = system: ACAT enzyme; test: ACAT Inhibition Assay (inhibition of cholesterol esterification in cultured Fu5AH rat hepatoma cells); assay type: cell-based; parameters: key to Activity: Active: Compounds with ACAT inhibiting activity equal to, or greater than, that of chloropromazine are declared active; settings: for % Inhib. of Chol. Esterf.: Fu5AH cells, 18 hours; for Activity: compared with chlorpromazine
Source text: A standard in vitro test system designed to identify compounds capable of inhibitory the ACAT enzyme in cultured Fu5AH rat hepatoma cells which was used to test the compounds of this invention, among others, is described hereinbelow.
Since the ACAT enzyme in Fu5AH cells is similar if not identical to the ACAT enzyme in arterial tissue in valuable, warm-blooded animals, including humans, the Fu5AH cell test represents a more efficient, simplified and economical means of screening for ACAT inhibitors than similar assays which depend upon the use of arterial tissue and arterial subfractions as the source of the ACAT enzyme.
For our in vitro test the Fu5AH rat hepatoma cell line was selected as our source of the ACAT enzyme since this particular cell line mimicked important characteristics of human and valuable animal arterial cells during the development of atherosclerosis. The Fu5AH cells accumulate cholesterol extensively when incubated with hyperlipemic plasma proteins; more importantly, Fu5HA cells accumulated the cholesterol predominantly as the esterified form through the action of the ACAT enzyme. See Rothblat, G. H., "Cholesteryl Ester Metabolism in Tissue Culture Cell. I. Accumulation in Fu5AH Rat Hepatoma Cells", Lipids, 9, (1974) page 526.
The Fu5AH cells used in our in vitro assay were first acquired from G. H. Rothblat, supra, of the Medical College of Pa.
The Fu5AH rat hepatoma cell-line was derived from the Reuber H-35 rat hepatoma. (See Reuber, M.D., "A Transplantable Bilesecreting Hepatocellular Carcinoa in the Rat", J. Natl., Cancer Inst., 26 (1961), page 891. The cell-line is maintained in Eagle's Minimal Essential Medium (MEM, GiBCO) supplemented with 5% bovine fetal calf serum. Incubation is at 36° C. in an atmosphere of 5% CO2 in air (Hotpack, Model 351922). Cells from stock cultures, grown to confluency in 25 cm^2 flasks (Falcon) containing 10 ml. medium, are detached with 0.25% trypsin in 1% ethylenediaminetetraacetic acid (EDTA) (Gibco), diluted 1:10 with MEM and mixed by agitation through a pipette which serves to disrupt the cellular clumps. Stock cultures are replenished with fresh medium at 3 to 4 day intervals.
One ml. aliquots of the diluted stock suspension described above are then transferred to 60 mm. dishes (Falcon) containing four ml. MEM and the seeded cells are allowed to grow to confluence (three days). At confluence, the medium is removed by aspiration and the cells are washed once with MEM. Five ml. of MEM supplemented with 5% hyperlipemic rabbit serum (HRS) (HRS is obtained from male New Zealane rabbits fed Purina Chow® rabbit feed supplemented with 1% cholesterol and 3% peanut oil (w/w/w/) for two to three weeks. Pooled sera from two or more rabbits are filtered through a 0.45 mμ filter (Nalgene) and stored frozen in convenient aliquots until used) and containing 1μ Ci/ml of ^3 H-cholesterol are then added to the dishes as the experimental (assay) medium. The experimental medium is labeled with 1,2-^3 H(N)-cholesterol (sp. act. approx. 40-60 Ci/mol, New Zealand Nuclear Corp.) prior to its addition to the confluent cultures and is prepared as follows. Five ml. of HRS is diluted with approximately 20 ml of MEM and the mixture is labeled by the addition of 100 μCi ^3 H-cholesterol dissolved in 100 μl absolute ethyl alcohol. The resulting mixture is then incubated for four hours at 36° C. to permit equilibration of the labeled cholesterol with the serum lipoprotein-cholesterol. After the equilibration period, the mixture is diluted to 100 ml. with MEM and used as the labeled assay medium. Following the addition of the labeled medium to the dishes, dimethylsulfoxide solutions of the test substances and the positive standard chloropromazine HCl (1 mg/ml) are added to the cultures in volumes of 25, 50, […]; control cultures receive equivalent volumes of dimethylsufoxide alone. […]

[2] = system: Moderately Hypercholesterolemic Quail; test: In vivo testing in moderately hypercholesterolemic quail (serum LDL cholesterol); parameters: species or system Japanese quail; settings: compound in diet, two weeks
Source text: Male SEA Japanese quail, approximately four to six weeks of age, were reared at Miles Quail Farm, Gobles, Mich. from a colony of animals originally derived at The Upjohn Company. Birds were randomly distributed into ten groups of ten quail each. They were house individually in ten cage units and fed a commercial diet (Purina Game Bird Layena, Ralston Purina Co., St. Louis, Mo.) mixed with various amounts of cholesterol with and without 1% peanut oil. Compounds were mixed into 2.4 kg of the diet using a feed mixer (Hobard A-200) for twenty minutes. Control groups received normal diet. In one series of experiments birds were fed 0.5% cholesterol/1% peanut oil plus colestipol hydrochloride. After two weeks on the diets, each bird was bled from the right jugular vein and serum samples were obtained after low speed centrifugation. Food intake was determined for each group by subtracting the weight of diet remaining at the end of the experiment from the weight of the starting diet.
Beta- and alpha-lipoproteins were isolated from individual serum samples using PEG-8000 and glycerine buffer, pH 9 (9). Three hundred microliters of serum were mixed with 300 microliters of solution. A (20 grams of PEG-8000 plus 100 ml of glycerine buffer, pH 9) using a Micromedic automatic pipet. Samples were allowed to stand at room temperature for ten minutes and then were centrifuged for twenty minutes at 2000× g at 4° C. The beta-lipoprotein pellet was dissolved in 300 microliters of solution B (10 ml Triton X-100 plus 1000 ml Milli Q water). Cholesterol, triglycerides and total protein in alpha- and beta-lipoproteins were measured using the Deman Autoanalyzer, Model AU 500 (Cooper Biomedical Inc.) and Worthington Demand Enzymatic reagents.
All data were statistically analyzed using a one-way classification design. Values were transformed to logarithms to achieve more homogenous within-group variances. The mean response for each diet and for the effect was compared with the mean observed in the control animals by the LSD test. Treated/control ratios of antilogs of the log means are also presented.

[3] = system: membranes; settings: known drug; cited from earlier work
[4] = system: blood platelet aggregation; settings: known drug; cited from earlier work
[5] = system: ACAT enzyme; settings: known drug; cited from earlier work

SMILES	% Inhib. of Chol. Esterf. ([1]; 5.0 ug/ml) [%]	Activity ([1]; 5.0 ug/ml)	% Inhib. of Chol. Esterf. ([1]; 10.0 ug/ml) [%]	Activity ([1]; 10.0 ug/ml)	% Inhib. of Chol. Esterf. ([1]; 15.0 ug/ml) [%]	Activity ([1]; 15.0 ug/ml)	Percent Change in Serum LDL Cholesterol From Control [2] [%]	potency for ACAT enzyme inhibition (in words) ([1]; among the compounds of Table I)	change of membrane fluidity (in words) [3]	blood platelet aggregation inhibition (in words) [4]	ACAT enzyme inhibition (in words) [5]
O=C1c2c(c(=O)n3nc(-c4ccccc4)cc3n2Cc2ccccc2)CN1C1CCCCC1 [Example 2, 6-Cyclohexyl-6,7-dihydro-2-phenyl-4-(phenylmethyl)-4H-pyrazolo[1,5-a]pyrrolo[3,4-d]pyrimidine-5,8-dione]	60.1	Active	87.7	Active	93.6	Active	-50				
C=CCCCCn1c2c(c(=O)n3nc(-c4ccccc4)cc13)CN(C1CCCCC1)C2=O [Example 1, 6-Cyclohexyl-4-(5-hexenyl)-6,7-dihydro-2-phenyl-4H-pyrazolo[1,5-a]pyrrolo[3,4-d]pyrimidine-5,8-dione]	68.6	Active	93.2	Active	96.1	Active	-42				
O=C(Cn1c2c(c(=O)n3nc(-c4ccccc4)cc13)CN(C1CCCCC1)C2=O)c1ccccc1 [Example 4, 4-(Benzoylmethyl)-6-cyclohexyl-6,7-dihydro-2-phenyl-4H-pyrazolo[1,5-a]pyrrolo-[3,4-d]pyrimidine-5,8-dione]	88.6	Active	92.2	Active	91.9	Active	-59	most potent compound			
CN(C)CCCN1c2ccccc2Sc2ccc(Cl)cc21 [chlorpromazine]									change the fluidity of membranes	blood platelet aggregation inhibition properties	ACAT enzyme inhibitor
